Key:
[1] = tested on: Bacillus spp.; experiment: Inhibition of Bacillus spp. by acriflavin; assay type: cell-based
[2] = tested on: L. monocytogenes; experiment: Effect of acriflavin on hemolytic activity of L. monocytogenes; assay type: cell-based

Acriflavin
Inhibition of Bacillus spp. [1]: consistently inhibits all of the Bacillus spp. | Effect on hemolytic activity of L. monocytogenes [2]: inhibits the hemolytic activity of L. monocytogenes

— US7960164B2, “Selective growth medium for Listeria spp” (Paradigm Diagnostics, Inc., priority 2004, dated 2011)
